Starred links: 1 amine or outer side, 2 acyl side, 3 side chain; linkers in the order of their positions; H or OH if unused. Non-standard residues stand in square brackets, D forms with d. Residues, ends and D or L forms follow the SMILES beside them. *: point of attachment. X1 = O=C([C@H](Cc1ccc(O)cc1)N(Cc1cccc(Oc2ccccc2)c1)[*:1])[*:2]; X2 = O=C([C@H](Cc1ccc(O)cc1)N(c1ccc(-c2ccccc2)cc1)[*:1])[*:2]; X3 = O=C([C@H](Cc1ccc(O)cc1)N(Cc1ccsc1)[*:1])[*:2]; NBnTyr = O=C(O)[C@H](Cc1ccc(O)cc1)NCc1ccccc1; tBuAla = CC(C)(C)C[C@H](N)C(=O)O; NBn2 = c1ccc(CN(Cc2ccccc2)*)cc1; Cha = N[C@@H](CC1CCCCC1)C(=O)O; αMeL = CC(C)C[C@](C)(N)C(=O)O; Morpholide = C1CN(*)CCO1; Pyrrolidide = C1CCN(*)C1; Nva = CCC[C@H](N)C(=O)O; NHBn = c1ccc(CN*)cc1; NMeEt = CCN(C)*
Assays:
[1] = Inhibitory activity of YAGAVVNDL against Herpes Simplex Virus type 2 (HSV-2) ribonucleotide reductase determined as control; set-up: species or system Human alphaherpesvirus 2
[2] = system: Human alphaherpesvirus 2; test: Relative potency to that of YAGAVVNDL against Herpes Simplex Virus type 2 ribonucleotide reductase
[3] = target: Ribonucleotide reductase (Herpes simplex virus type 2); test: Compound was tested in vitro for inhibitory activity against Herpes Simplex Virus type 2 ribonucleotide reductase
[4] = The compound was tested in vitro for inhibitory activity against Herpes Simplex Virus type 2 ribonucleotide reductase; set-up: species or system Human alphaherpesvirus 2

Row | IC50 [3] | Compound | IC50 [1] | Relative potency [2] | IC50 [4]
1 | 5 µM | CC(C)C[C@H](NC(=O)[C@H](CC(=O)O)NC(=O)[C@H](CC(N)=O)NC(=O)[C@@H](NC(=O)[C@@H](NC(=O)Cc1ccc2ccccc2c1)C(C)C)C(C)C)C(=O)O | 30 µM | 6 | –
2 | – | CC(C)C[C@H](NC(=O)[C@H](CC(=O)O)NC(=O)[C@H](CC(=O)N1CCOCC1)NC(=O)[C@@H](NC(=O)[C@@H](NC(=O)[C@@H](N)Cc1ccc(O)cc1)C(C)C)C(C)C)C(=O)O (H-YVVD(Morpholide)DL-OH) | 22 µM | 36 | 0.6 µM
3 | – | CC(C)C[C@H](NC(=O)[C@H](CC(=O)O)NC(=O)[C@H](CC(=O)N(Cc1ccccc1)Cc1ccccc1)NC(=O)[C@@H](NC(=O)[C@@H](NC(=O)[C@@H](N)Cc1ccc(O)cc1)C(C)C)C(C)C)C(=O)O (H-YVVD(NBn2)DL-OH) | 25 µM | 13 | 2 µM
4 | – | CC(C)C[C@H](NC(=O)[C@H](CC(=O)O)NC(=O)[C@H](CC(=O)NCc1ccccc1)NC(=O)[C@@H](NC(=O)[C@@H](NC(=O)[C@@H](N)Cc1ccc(O)cc1)C(C)C)C(C)C)C(=O)O (H-YVVD(NHBn)DL-OH) | 22 µM | 5.5 | 4 µM
5 | – | CNC(=O)C[C@H](NC(=O)[C@@H](NC(=O)[C@@H](NC(=O)[C@@H](N)Cc1ccc(O)cc1)C(C)C)C(C)C)C(=O)N[C@@H](CC(=O)O)C(=O)N[C@@H](CC(C)C)C(=O)O (H-YVVD(NHMe)DL-OH) | 21 µM | 11 | 2 µM
6 | – | CC(C)C[C@H](NC(=O)[C@H](CC(=O)O)NC(=O)[C@H](CC(=O)N(C)C)NC(=O)[C@@H](NC(=O)[C@@H](NC(=O)[C@@H](N)Cc1ccc(O)cc1)C(C)C)C(C)C)C(=O)O (H-YVVD(NMe2)DL-OH) | 27 µM | 90 | 0.3 µM
7 | – | CC(C)[C@H](NC(=O)[C@@H](NC(=O)[C@@H](N)Cc1ccc(O)cc1)C(C)C)C(=O)N[C@@H](CC(=O)N(C)C)C(=O)N[C@@H](CC(=O)O)C(=O)N[C@@H](CC(C)(C)C)C(=O)O (H-YVVD(NMe2)D[tBuAla]-OH) | 22 µM | 110 | 0.2 µM
8 | – | CCN(C)C(=O)C[C@H](NC(=O)[C@@H](NC(=O)[C@@H](NC(=O)[C@@H](N)Cc1ccc(O)cc1)C(C)C)C(C)C)C(=O)N[C@@H](CC(=O)O)C(=O)N[C@@H](CC(C)C)C(=O)O (H-YVVD(NMeEt)DL-OH) | 10 µM | 25 | 0.4 µM
9 | – | CC(C)C[C@H](NC(=O)[C@H](CC(=O)O)NC(=O)[C@H](CC(=O)N1CCCC1)NC(=O)[C@@H](NC(=O)[C@@H](NC(=O)[C@@H](N)Cc1ccc(O)cc1)C(C)C)C(C)C)C(=O)O (H-YVVD(Pyrrolidide)DL-OH) | 32 µM | 32 | 1 µM
10 | – | CC(C)[C@H](NC(=O)[C@@H](NC(=O)[C@@H](N)Cc1ccc(O)cc1)C(C)C)C(=O)N[C@@H](CC(N)=O)C(=O)N[C@@H](CC(=O)O)C(=O)N[C@@H](CC1CCCCC1)C(=O)O (H-YVVND[Cha]-OH) | 16 µM | 0.29 | 55 µM
11 | – | CCC[C@H](NC(=O)[C@H](CC(=O)O)NC(=O)[C@H](CC(N)=O)NC(=O)[C@@H](NC(=O)[C@@H](NC(=O)[C@@H](N)Cc1ccc(O)cc1)C(C)C)C(C)C)C(=O)O (H-YVVND[Nva]-OH) | 25 µM | 0.16 | 160 µM
12 | – | CC(C)[C@H](NC(=O)[C@@H](NC(=O)[C@@H](N)Cc1ccc(O)cc1)C(C)C)C(=O)N[C@@H](CC(N)=O)C(=O)N[C@@H](CC(=O)O)C(=O)N[C@@H](CC(C)(C)C)C(=O)O (H-YVVND[tBuAla]-OH) | 43 µM | 3.3 | 13 µM
13 | – | CC(C)C[C@](C)(NC(=O)[C@H](CC(=O)O)NC(=O)[C@H](CC(N)=O)NC(=O)[C@@H](NC(=O)[C@@H](NC(=O)[C@@H](N)Cc1ccc(O)cc1)C(C)C)C(C)C)C(=O)O (H-YVVND[αMeL]-OH) | 38 µM | 0.12 | 320 µM
14 | – | CC(C)[C@H](NC(=O)[C@H](Cc1ccc(O)cc1)NCc1ccccc1)C(=O)N[C@H](C(=O)N[C@@H](CC(=O)N(C)C)C(=O)N[C@@H](CC(=O)O)C(=O)N[C@@H](CC(C)(C)C)C(=O)O)C(C)C (H-[NBnTyr]VVD(NMe2)D[tBuAla]-OH) | 18 µM | 60 | 0.3 µM
15 | 6 µM | CC(C)C[C@H](NC(=O)[C@H](CC(=O)O)NC(=O)[C@H](CC(N)=O)NC(=O)[C@@H](NC(=O)[C@@H](NC(=O)[C@H](Cc1ccc(O)cc1)NCc1ccccc1)C(C)C)C(C)C)C(=O)O (H-[NBnTyr]VVNDL-OH) | 30 µM | 5 | –
16 | – | CC(C)[C@H](NC(=O)[C@H](Cc1ccc(O)cc1)NCc1ccccc1)C(=O)N[C@H](C(=O)N[C@@H](CC(N)=O)C(=O)N[C@@H](CC(=O)O)C(=O)N[C@@H](CC(C)(C)C)C(=O)O)C(C)C (H-[NBnTyr]VVND[tBuAla]-OH) | 35 µM | 23 | 1.5 µM
17 | – | CC(C)C[C@H](NC(=O)[C@H](CC(=O)O)NC(=O)[C@H](CC(N)=O)NC(=O)[C@@H](NC(=O)[C@@H](NC(=O)[C@H](Cc1ccc(O)cc1)NCc1cccc(Oc2ccccc2)c1)C(C)C)C(C)C)C(=O)O (H-[X1]VVNDL-OH) | 40 µM | 3.3 | 12 µM
18 | – | CC(C)C[C@H](NC(=O)[C@H](CC(=O)O)NC(=O)[C@H](CC(N)=O)NC(=O)[C@@H](NC(=O)[C@@H](NC(=O)[C@H](Cc1ccc(O)cc1)Nc1ccc(-c2ccccc2)cc1)C(C)C)C(C)C)C(=O)O (H-[X2]VVNDL-OH) | 34 µM | 1.1 | 32 µM
19 | – | CC(C)C[C@H](NC(=O)[C@H](CC(=O)O)NC(=O)[C@H](CC(N)=O)NC(=O)[C@@H](NC(=O)[C@@H](NC(=O)[C@H](Cc1ccc(O)cc1)NCc1ccsc1)C(C)C)C(C)C)C(=O)O (H-[X3]VVNDL-OH) | 80 µM | 4 | 20 µM
20 | 0.45 µM | CC(C)C[C@H](NC(=O)[C@H](CC(=O)O)NC(=O)[C@H](CC(N)=O)NC(=O)[C@@H](NC(=O)[C@@H](NC(=O)C(Cc1ccccc1)Cc1ccc(O)cc1)C(C)C)C(C)C)C(=O)O (stereo in doubt; form 1) | 9.5 µM | – | –

From ChEMBL document CHEMBL1126344, “Substituted penta- and hexapeptides as potent inhibitors of herpes simplex virus type 2 ribonucleotide reductase” (Bioorg Med Chem Lett, 1992)
